{"source": "PubChem BioAssay AID212", "about": "(DTP/NCI, 2004)", "test_system": "BDF1 mice, colon carcinoma 38 sc, T/C %", "experiment": "NCI In Vivo Anticancer Drug Screen. Data for tumor model Colon Carcinoma 38 (subcutaneous) in B6D2F1 (BDF1) mice", "conditions": "endpoint: median tumor weight (est.), higher = larger tumour", "in_short": "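Compound antitumor activity was assessed in mice carrying transplantable tumors. Survival or tumor size was recorded, and each value is the treated-group measurement divided by that of the vehicle-treated control group.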", "key": {"[1]": {"conditions": "dose: 200.0 mg/kg/injection, schedule: Q07DX002 (ip), vehicle: saline"}, "[2]": {"conditions": "dose: 50.0 mg/kg/injection, schedule: Q07DX002 (ip), vehicle: saline"}, "[3]": {"conditions": "dose: 400.0 mg/kg/injection, schedule: Q07DX002 (ip), vehicle: saline"}, "[4]": {"conditions": "dose: 800.0 mg/kg/injection, schedule: Q07DX002 (ip), vehicle: saline"}}, "note": "Several values for one entry are separate records, joined by “and”; a condition that tells them apart may be missing. Identical values can stand only once. Results filed as inconclusive are left out.", "data": [{"compound": "CC(=O)OCC1OC(n2cc(CBr)nn2)C(OC(C)=O)C(OC(C)=O)C1OC(C)=O", "note": "(stereo not drawn)", "values": [{"measurement": "T/C", "setting": "dose: 6.25 mg/kg/injection, schedule: Q07DX003 (ip), vehicle: Klucel (hydroxypropylcellulose) (HPC)", "value": "46 % of control"}, {"measurement": "T/C", "setting": "dose: 6.25 mg/kg/injection, schedule: Q07DX003 (ip), vehicle: saline with Tween-80", "value": "120 % of control"}, {"measurement": "T/C", "setting": "dose: 12.5 mg/kg/injection, schedule: Q07DX003 (ip), vehicle: Klucel (hydroxypropylcellulose) (HPC)", "value": "93 % of control"}, {"measurement": "T/C", "setting": "dose: 12.5 mg/kg/injection, schedule: Q07DX003 (ip), vehicle: saline with Tween-80", "value": "67 % of control"}, {"measurement": "T/C", "setting": "dose: 25.0 mg/kg/injection, schedule: Q07DX003 (ip), vehicle: Klucel (hydroxypropylcellulose) (HPC)", "value": "120 % of control"}, {"measurement": "T/C", "setting": "dose: 25.0 mg/kg/injection, schedule: Q07DX003 (ip), vehicle: saline with Tween-80", "value": "90 % of control"}, {"measurement": "T/C", "setting": "dose: 50.0 mg/kg/injection, schedule: Q07DX003 (ip), vehicle: saline with Tween-80", "value": "53 % of control"}, {"measurement": "T/C", "setting": "dose: 100.0 mg/kg/injection, schedule: Q07DX003 (ip), vehicle: saline with Tween-80", "value": "64 % of control"}]}, {"compound": "N=C1CCCS1", "values": [{"measurement": "T/C", "setting": "[1]", "value": "101 % of control"}]}, {"compound": "O=C1C(=O)c2ccccc2C(O)=C1CC=C(Cl)Cl", "values": [{"measurement": "T/C", "setting": "dose: 25.0 mg/kg/injection, schedule: Q07DX002 (ip), vehicle: other", "value": "81 % of control"}, {"measurement": "T/C", "setting": "dose: 50.0 mg/kg/injection, schedule: Q07DX002 (ip), vehicle: other", "value": "90 % of control"}, {"measurement": "T/C", "setting": "dose: 100.0 mg/kg/injection, schedule: Q07DX002 (ip), vehicle: other", "value": "124 % of control"}, {"measurement": "T/C", "setting": "dose: 200.0 mg/kg/injection, schedule: Q07DX002 (ip), vehicle: other", "value": "190 % of control"}]}, {"compound": "N#C[C@H](OC1OC(COC2OC(CO)C(O)C(O)C2O)C(O)C(O)C1O)c1ccccc1", "note": "(stereo partly drawn)", "values": [{"measurement": "T/C", "setting": "[2]", "value": "76 % of control"}, {"measurement": "T/C", "setting": "dose: 50.0 mg/kg/injection, schedule: Q07DX002 (ip), vehicle: water", "value": "70 % of control"}, {"measurement": "T/C", "setting": "dose: 100.0 mg/kg/injection, schedule: Q07DX002 (ip), vehicle: saline", "value": "103 % of control"}, {"measurement": "T/C", "setting": "dose: 100.0 mg/kg/injection, schedule: Q07DX002 (ip), vehicle: water", "value": "70 % of control"}, {"measurement": "T/C", "setting": "[1]", "value": "62 % of control"}, {"measurement": "T/C", "setting": "dose: 200.0 mg/kg/injection, schedule: Q07DX002 (ip), vehicle: water", "value": "85 % of control"}, {"measurement": "T/C", "setting": "[3]", "value": "76 % of control"}, {"measurement": "T/C", "setting": "dose: 400.0 mg/kg/injection, schedule: Q07DX002 (ip), vehicle: water", "value": "112 % of control"}, {"measurement": "T/C", "setting": "[4]", "value": "87 % of control"}, {"measurement": "T/C", "setting": "dose: 800.0 mg/kg/injection, schedule: Q07DX002 (ip), vehicle: water", "value": "83 % of control"}, {"measurement": "T/C", "setting": "dose: 1600.0 mg/kg/injection, schedule: Q07DX002 (ip), vehicle: saline", "value": "98 % of control"}, {"measurement": "T/C", "setting": "dose: 1600.0 mg/kg/injection, schedule: Q07DX002 (ip), vehicle: water", "value": "106 % of control"}]}, {"compound": "Nc1ncn(C2OC(CO)C(O)C2O)c(=O)n1", "note": "(stereo not drawn)", "values": [{"measurement": "T/C", "setting": "dose: 12.5 mg/kg/injection, schedule: Q07DX002 (ip), vehicle: saline", "value": "69 % of control"}, {"measurement": "T/C", "setting": "dose: 32.0 mg/kg/injection, schedule: Q07DX002 (ip), vehicle: saline", "value": "19 % of control and 31 % of control"}, {"measurement": "T/C", "setting": "[2]", "value": "80 % of control and 85 % of control and 97 % of control"}, {"measurement": "T/C", "setting": "dose: 200.0 mg/kg/injection, schedule: Q07DX002 (ip), vehicle: saline with Tween-80", "value": "88 % of control"}, {"measurement": "T/C", "setting": "dose: 400.0 mg/kg/injection, schedule: Q07DX002 (ip), vehicle: saline with Tween-80", "value": "61 % of control"}, {"measurement": "T/C", "setting": "[3]", "value": "62 % of control and 79 % of control and 82 % of control"}, {"measurement": "T/C", "setting": "dose: 800.0 mg/kg/injection, schedule: Q07DX002 (ip), vehicle: saline with Tween-80", "value": "95 % of control"}, {"measurement": "T/C", "setting": "[4]", "value": "27 % of control"}, {"measurement": "T/C", "setting": "dose: 1200.0 mg/kg/injection, schedule: Q07DX002 (ip), vehicle: saline with Tween-80", "value": "55 % of control"}]}, {"compound": "O=C(O)C1CC1.[Ag]", "values": [{"measurement": "T/C", "setting": "dose: 6.25 mg/kg/injection, schedule: Q07DX002 (ip), vehicle: distilled water + Tween-80", "value": "119 % of control"}, {"measurement": "T/C", "setting": "dose: 6.25 mg/kg/injection, schedule: Q07DX002 (ip), vehicle: water", "value": "108 % of control"}, {"measurement": "T/C", "setting": "dose: 12.5 mg/kg/injection, schedule: Q07DX002 (ip), vehicle: water", "value": "84 % of control"}, {"measurement": "T/C", "setting": "dose: 25.0 mg/kg/injection, schedule: Q07DX002 (ip), vehicle: distilled water + Tween-80", "value": "87 % of control"}]}]}
